Measurements: the supplement of paper PMC10307832

Tests used:
Assay in all cases: relative viability (nuclei count vs DMSO), 5 days (fraction); higher = more cells survive
A549 = system: A549
Outline: (§1)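 Lung cancer cell lines in 1536-well plates were dosed by pin tool the day after seeding, either with one drug alone or with a fixed anchor-drug dose plus five library-drug doses (not always all listed) in √10 steps. After 5 days, cells were fixed and their nuclei stained in one step (final 0.05% Triton X-100, 1% formaldehyde, 1 ug/ml Hoechst), then counted on 4× images. Relative viability is the nuclei count in treated wells divided by that in vehicle wells. Values are medians of duplicate plates.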

Calu-6 = system: Calu-6
Outline: as §1

EBC-1 = system: EBC-1
Outline: as §1

IA-LM = system: IA-LM
Outline: as §1

NCI-H1299 = system: NCI-H1299
Outline: as §1

NCI-H1355 = system: NCI-H1355
Outline: as §1

NCI-H1703 = system: NCI-H1703
Outline: as §1

Q: What does the source list for `C[C@@H]1CN(CC(=O)Nc2ccc3c(c2)Cc2cccc(-c4cc(=O)cc(N5CCOCC5)o4)c2S3)C[C@H](C)O1` + Cc1nc(NC(=O)N2CCC[C@H]2C(N)=O)sc1-c1ccnc(C(C)(C)C(F)(F)F)c1 [Alpelisib] (partner 2 µM)?
A: relative viability (A549; first compound 0.04 µM): 0.776; relative viability (A549; first compound 0.1265 µM): 0.753; relative viability (A549; first compound 0.4 µM): 0.826; relative viability (A549; first compound 4 µM): 0.457; relative viability (Calu-6; first compound 0.04 µM): 1.03; relative viability (Calu-6; first compound 0.1265 µM): 1.03; relative viability (Calu-6; first compound 0.4 µM): 0.97; relative viability (Calu-6; first compound 4 µM): 0.79; relative viability (EBC-1; first compound 0.04 µM): 0.905; relative viability (EBC-1; first compound 0.1265 µM): 0.826; relative viability (EBC-1; first compound 0.4 µM): 0.386; relative viability (EBC-1; first compound 4 µM): 0.506; relative viability (IA-LM; first compound 0.04 µM): 0.884; relative viability (IA-LM; first compound 0.1265 µM): 0.801; relative viability (IA-LM; first compound 0.4 µM): 0.895; relative viability (IA-LM; first compound 4 µM): 0.387; relative viability (NCI-H1299; first compound 0.04 µM): 1.02; relative viability (NCI-H1299; first compound 0.1265 µM): 1.05; relative viability (NCI-H1299; first compound 0.4 µM): 1.05; relative viability (NCI-H1299; first compound 4 µM): 1.02; relative viability (NCI-H1355; first compound 0.04 µM): 0.856; relative viability (NCI-H1355; first compound 0.1265 µM): 0.759; relative viability (NCI-H1355; first compound 0.4 µM): 0.862; relative viability (NCI-H1355; first compound 4 µM): 0.827; relative viability (NCI-H1703; first compound 0.04 µM): 0.426; relative viability (NCI-H1703; first compound 0.1265 µM): 0.33; relative viability (NCI-H1703; first compound 0.4 µM): 0.299; relative viability (NCI-H1703; first compound 4 µM): 0.277

Q: For `C[C@@H]1CN(CC(=O)Nc2ccc3c(c2)Cc2cccc(-c4cc(=O)cc(N5CCOCC5)o4)c2S3)C[C@H](C)O1` + CS(=O)(=O)N1CCN(Cc2cc3nc(-c4cccc5[nH]ncc45)nc(N4CCOCC4)c3s2)CC1 [Pictilisib] (partner 1 µM), which relative viability (A549; first compound 0.04 µM) is on record?
A: Its relative viability is 0.524.

Q: What about the relative viability (A549; first compound 0.1265 µM) of the same molecule?
A: The relative viability was 0.594.

Q: What about the relative viability (A549; first compound 0.4 µM) of the same molecule?
A: The relative viability was 0.444.

Q: What about the relative viability (A549; first compound 4 µM) of the same molecule?
A: The relative viability was 0.323.

Q: What about the relative viability (Calu-6; first compound 0.04 µM) of the same molecule?
A: The relative viability was 0.962.

Q: And the relative viability (Calu-6; first compound 0.1265 µM)?
A: The relative viability was 0.97.

Q: What about the relative viability (Calu-6; first compound 0.4 µM) of the same molecule?
A: The relative viability was 0.925.

Q: And the relative viability (Calu-6; first compound 4 µM)?
A: The relative viability was 0.8.

Q: What about the relative viability (EBC-1; first compound 0.04 µM) of the same molecule?
A: The relative viability was 0.487.

Q: What about the relative viability (EBC-1; first compound 0.1265 µM) of the same molecule?
A: Its relative viability is 0.412.

Q: What about the relative viability (EBC-1; first compound 0.4 µM) of the same molecule?
A: The relative viability was 0.244.

Q: What about the relative viability (EBC-1; first compound 4 µM) of the same molecule?
A: The relative viability was 0.266.

Q: What about the relative viability (IA-LM; first compound 0.04 µM) of the same molecule?
A: The relative viability was 0.3.

Q: What about the relative viability (IA-LM; first compound 0.1265 µM) of the same molecule?
A: The relative viability was 0.372.

Q: What about the relative viability (IA-LM; first compound 0.4 µM) of the same molecule?
A: Its relative viability is 0.301.

Q: What about the relative viability (IA-LM; first compound 4 µM) of the same molecule?
A: Its relative viability is 0.234.

Q: And the relative viability (NCI-H1299; first compound 0.04 µM)?
A: The relative viability was 0.898.

Q: And the relative viability (NCI-H1299; first compound 0.1265 µM)?
A: Its relative viability is 0.739.

Q: And the relative viability (NCI-H1299; first compound 0.4 µM)?
A: The relative viability was 0.848.

Q: And the relative viability (NCI-H1299; first compound 4 µM)?
A: Its relative viability is 0.689.

Q: What about the relative viability (NCI-H1355; first compound 0.04 µM) of the same molecule?
A: Its relative viability is 0.229.

Q: And the relative viability (NCI-H1355; first compound 0.1265 µM)?
A: Its relative viability is 0.43.

Q: What about the relative viability (NCI-H1355; first compound 0.4 µM) of the same molecule?
A: The relative viability was 0.418.

Q: And the relative viability (NCI-H1355; first compound 4 µM)?
A: The relative viability was 0.331.

Q: What about the relative viability (NCI-H1703; first compound 0.04 µM) of the same molecule?
A: The relative viability was 0.249.

Q: And the relative viability (NCI-H1703; first compound 0.1265 µM)?
A: Its relative viability is 0.243.

Q: What about the relative viability (NCI-H1703; first compound 0.4 µM) of the same molecule?
A: Its relative viability is 0.238.

Q: What about the relative viability (NCI-H1703; first compound 4 µM) of the same molecule?
A: The relative viability was 0.205.

Q: What does the source list for `Clc1ccc(Nc2nnc(Cc3ccncc3)c3ccccc23)cc1` [Vatalanib] + Cc1nc(NC(=O)N2CCC[C@H]2C(N)=O)sc1-c1ccnc(C(C)(C)C(F)(F)F)c1 [Alpelisib] (partner 2 µM)?
A: relative viability (A549; first compound 0.04 µM): 0.795; relative viability (A549; first compound 0.1265 µM): 0.758; relative viability (A549; first compound 0.4 µM): 0.922; relative viability (A549; first compound 1.265 µM): 0.694; relative viability (A549; first compound 4 µM): 0.707; relative viability (Calu-6; first compound 0.04 µM): 1.09; relative viability (Calu-6; first compound 0.1265 µM): 0.95; relative viability (Calu-6; first compound 0.4 µM): 1.08; relative viability (Calu-6; first compound 1.265 µM): 0.958; relative viability (Calu-6; first compound 4 µM): 0.938; relative viability (EBC-1; first compound 0.04 µM): 0.842; relative viability (EBC-1; first compound 0.1265 µM): 0.698; relative viability (EBC-1; first compound 0.4 µM): 0.82; relative viability (EBC-1; first compound 1.265 µM): 0.856; relative viability (EBC-1; first compound 4 µM): 0.852; relative viability (IA-LM; first compound 0.04 µM): 0.747; relative viability (IA-LM; first compound 0.1265 µM): 0.754; relative viability (IA-LM; first compound 0.4 µM): 0.715; relative viability (IA-LM; first compound 1.265 µM): 0.797; relative viability (IA-LM; first compound 4 µM): 0.918; relative viability (NCI-H1299; first compound 0.04 µM): 1.02; relative viability (NCI-H1299; first compound 0.1265 µM): 1.08; relative viability (NCI-H1299; first compound 0.4 µM): 1.05; relative viability (NCI-H1299; first compound 1.265 µM): 1.02; relative viability (NCI-H1299; first compound 4 µM): 1.04; relative viability (NCI-H1355; first compound 0.04 µM): 0.821; relative viability (NCI-H1355; first compound 0.1265 µM): 0.747; relative viability (NCI-H1355; first compound 0.4 µM): 0.87; relative viability (NCI-H1355; first compound 1.265 µM): 0.691; relative viability (NCI-H1355; first compound 4 µM): 0.711; relative viability (NCI-H1703; first compound 0.04 µM): 0.327; relative viability (NCI-H1703; first compound 0.4 µM): 0.395; relative viability (NCI-H1703; first compound 1.265 µM): 0.235; relative viability (NCI-H1703; first compound 4 µM): 0.212
